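Compound exposure: 48 hours, 5 concentrations, 96-well plates. TGI: total growth inhibition.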
system: 786-0 renal; assay: growth of human tumour cells (NCI), 48 h

Compared with `CN(C)C(=S)/N=c1\ssc(=S)n1Cc1ccccc1`, `CCOC(=O)/C=C/n1c2ccccc2c(=O)c2ccccc21` is higher in TGI: 15.9 µM for the first, over 100 µM for the second.

`Cc1ccc(N2C(=O)CS/C2=C(\C#N)c2nc3ccccc3[nH]2)cc1` and `N#C/C(c1nc2ccccc2[nH]1)=c1\s/c(=C/c2ccc(Cl)cc2)c(=O)n1-c1ccccc1` cannot be ordered by TGI: over 100 µM for the first, over 100 µM for the second.

`CCOc1ccc(/C(Cl)=C(\C=O)c2ccc(OC)c(OC)c2)cc1OCC` and `COc1ccc(N=Cc2ccc(N(CCC#N)S(=O)(=O)c3ccccc3)cc2)cc1` cannot be ordered by TGI: over 100 µM for the first, over 100 µM for the second.

`COC(=O)C(C#CCCCCC#CC(NC(=O)OCc1ccccc1)(C(=O)OC)C(F)(F)F)(NC(=O)OCc1ccccc1)C(F)(F)F` (stereo not given) and `C=CCC(N(C)C(=O)[C@H](Cc1ccccc1)NC(=O)OCc1ccccc1)P(=O)(Oc1ccccc1)Oc1ccccc1` (stereo not given in full) cannot be ordered by TGI: over 100 µM for the first, over 100 µM for the second.

`COC(=O)CC1NC(=O)[C@@H]1C(C)O` (stereo not given in full) and `Nc1nc(SCc2ccc([N+](=O)[O-])cc2)nc2c1ncn2C1OC(CO)C(O)C1O` (stereo not given) cannot be ordered by TGI: over 100 µM for the first, over 100 µM for the second.

`O=C1c2ccccc2OP(=O)(OCC(F)(F)F)OC1(C(F)(F)F)C(F)(F)F` (stereo not given) gave a TGI of over 100 µM.

system: DLD-1 colon; assay: growth of human tumour cells (NCI), 48 h

`CN(C)C(=S)/N=c1\ssc(=S)n1Cc1ccccc1` and `CCOC(=O)/C=C/n1c2ccccc2c(=O)c2ccccc21` cannot be ordered by TGI: over 55.1 µM for the first, over 100 µM for the second.

`Cc1ccc(N2C(=O)CS/C2=C(\C#N)c2nc3ccccc3[nH]2)cc1` and `N#C/C(c1nc2ccccc2[nH]1)=c1\s/c(=C/c2ccc(Cl)cc2)c(=O)n1-c1ccccc1` cannot be ordered by TGI: over 100 µM for the first, over 100 µM for the second.

`CCOc1ccc(/C(Cl)=C(\C=O)c2ccc(OC)c(OC)c2)cc1OCC` and `COc1ccc(N=Cc2ccc(N(CCC#N)S(=O)(=O)c3ccccc3)cc2)cc1` cannot be ordered by TGI: over 100 µM for the first, over 100 µM for the second.

`COC(=O)C(C#CCCCCC#CC(NC(=O)OCc1ccccc1)(C(=O)OC)C(F)(F)F)(NC(=O)OCc1ccccc1)C(F)(F)F` (stereo not given) and `C=CCC(N(C)C(=O)[C@H](Cc1ccccc1)NC(=O)OCc1ccccc1)P(=O)(Oc1ccccc1)Oc1ccccc1` (stereo not given in full) cannot be ordered by TGI: over 100 µM for the first, over 100 µM for the second.

Work on `Nc1nc(SCc2ccc([N+](=O)[O-])cc2)nc2c1ncn2C1OC(CO)C(O)C1O` (stereo not given) yielded a TGI of over 100 µM.

system: DMS 273 small cell lung; assay: growth of human tumour cells (NCI), 48 h

`Cc1ccc(N2C(=O)CS/C2=C(\C#N)c2nc3ccccc3[nH]2)cc1` and `N#C/C(c1nc2ccccc2[nH]1)=c1\s/c(=C/c2ccc(Cl)cc2)c(=O)n1-c1ccccc1` cannot be ordered by TGI: over 100 µM for the first, over 100 µM for the second.

`CCOc1ccc(/C(Cl)=C(\C=O)c2ccc(OC)c(OC)c2)cc1OCC` and `CCOC(=O)/C=C/n1c2ccccc2c(=O)c2ccccc21` cannot be ordered by TGI: over 100 µM for the first, over 100 µM for the second.

`COC(=O)CC1NC(=O)[C@@H]1C(C)O` (stereo not given in full) and `Nc1nc(SCc2ccc([N+](=O)[O-])cc2)nc2c1ncn2C1OC(CO)C(O)C1O` (stereo not given) cannot be ordered by TGI: over 100 µM for the first, over 100 µM for the second.

`O=C1c2ccccc2OP(=O)(OCC(F)(F)F)OC1(C(F)(F)F)C(F)(F)F` (stereo not given) and `COc1ccc(N=Cc2ccc(N(CCC#N)S(=O)(=O)c3ccccc3)cc2)cc1` cannot be ordered by TGI: over 100 µM for the first, over 100 µM for the second.

`C=CCC(N(C)C(=O)[C@H](Cc1ccccc1)NC(=O)OCc1ccccc1)P(=O)(Oc1ccccc1)Oc1ccccc1` (stereo not given in full) was tested, and the TGI was over 100 µM.

system: EKVX NSCLC; assay: growth of human tumour cells (NCI), 48 h

Going from `CN(C)C(=S)/N=c1\ssc(=S)n1Cc1ccccc1` to `CCOC(=O)/C=C/n1c2ccccc2c(=O)c2ccccc21`, the TGI rises from 57.6 µM to over 100 µM.

`Cc1ccc(N2C(=O)CS/C2=C(\C#N)c2nc3ccccc3[nH]2)cc1` and `N#C/C(c1nc2ccccc2[nH]1)=c1\s/c(=C/c2ccc(Cl)cc2)c(=O)n1-c1ccccc1` cannot be ordered by TGI: over 100 µM for the first, over 100 µM for the second.

`CCOc1ccc(/C(Cl)=C(\C=O)c2ccc(OC)c(OC)c2)cc1OCC` and `COc1ccc(N=Cc2ccc(N(CCC#N)S(=O)(=O)c3ccccc3)cc2)cc1` cannot be ordered by TGI: over 100 µM for the first, over 100 µM for the second.

`COC(=O)C(C#CCCCCC#CC(NC(=O)OCc1ccccc1)(C(=O)OC)C(F)(F)F)(NC(=O)OCc1ccccc1)C(F)(F)F` (stereo not given) and `C=CCC(N(C)C(=O)[C@H](Cc1ccccc1)NC(=O)OCc1ccccc1)P(=O)(Oc1ccccc1)Oc1ccccc1` (stereo not given in full) cannot be ordered by TGI: over 100 µM for the first, over 100 µM for the second.

`COC(=O)CC1NC(=O)[C@@H]1C(C)O` (stereo not given in full) and `Nc1nc(SCc2ccc([N+](=O)[O-])cc2)nc2c1ncn2C1OC(CO)C(O)C1O` (stereo not given) cannot be ordered by TGI: over 100 µM for the first, over 100 µM for the second.

In the case of `O=C1c2ccccc2OP(=O)(OCC(F)(F)F)OC1(C(F)(F)F)C(F)(F)F` (stereo not given), the TGI is reported as over 100 µM.

system: HCT-116 colon; assay: growth of human tumour cells (NCI), 48 h

Compared with `CN(C)C(=S)/N=c1\ssc(=S)n1Cc1ccccc1`, `CCOC(=O)/C=C/n1c2ccccc2c(=O)c2ccccc21` is higher in TGI: 29.6 µM for the first, over 100 µM for the second.

`Cc1ccc(N2C(=O)CS/C2=C(\C#N)c2nc3ccccc3[nH]2)cc1` and `N#C/C(c1nc2ccccc2[nH]1)=c1\s/c(=C/c2ccc(Cl)cc2)c(=O)n1-c1ccccc1` cannot be ordered by TGI: over 100 µM for the first, over 100 µM for the second.

`CCOc1ccc(/C(Cl)=C(\C=O)c2ccc(OC)c(OC)c2)cc1OCC` and `COc1ccc(N=Cc2ccc(N(CCC#N)S(=O)(=O)c3ccccc3)cc2)cc1` cannot be ordered by TGI: over 100 µM for the first, over 100 µM for the second.

`COC(=O)C(C#CCCCCC#CC(NC(=O)OCc1ccccc1)(C(=O)OC)C(F)(F)F)(NC(=O)OCc1ccccc1)C(F)(F)F` (stereo not given) and `C=CCC(N(C)C(=O)[C@H](Cc1ccccc1)NC(=O)OCc1ccccc1)P(=O)(Oc1ccccc1)Oc1ccccc1` (stereo not given in full) cannot be ordered by TGI: over 100 µM for the first, over 100 µM for the second.

`COC(=O)CC1NC(=O)[C@@H]1C(C)O` (stereo not given in full) and `Nc1nc(SCc2ccc([N+](=O)[O-])cc2)nc2c1ncn2C1OC(CO)C(O)C1O` (stereo not given) cannot be ordered by TGI: over 100 µM for the first, over 100 µM for the second.

`O=C1c2ccccc2OP(=O)(OCC(F)(F)F)OC1(C(F)(F)F)C(F)(F)F` (stereo not given) was tested, and the TGI was over 100 µM.

system: HOP-18 NSCLC; assay: growth of human tumour cells (NCI), 48 h

`CN(C)C(=S)/N=c1\ssc(=S)n1Cc1ccccc1` and `Cc1ccc(N2C(=O)CS/C2=C(\C#N)c2nc3ccccc3[nH]2)cc1` cannot be ordered by TGI: over 100 µM for the first, over 100 µM for the second.

`CCOc1ccc(/C(Cl)=C(\C=O)c2ccc(OC)c(OC)c2)cc1OCC` and `COc1ccc(N=Cc2ccc(N(CCC#N)S(=O)(=O)c3ccccc3)cc2)cc1` cannot be ordered by TGI: over 100 µM for the first, over 100 µM for the second.

`COC(=O)C(C#CCCCCC#CC(NC(=O)OCc1ccccc1)(C(=O)OC)C(F)(F)F)(NC(=O)OCc1ccccc1)C(F)(F)F` (stereo not given) and `N#C/C(c1nc2ccccc2[nH]1)=c1\s/c(=C/c2ccc(Cl)cc2)c(=O)n1-c1ccccc1` cannot be ordered by TGI: over 100 µM for the first, over 100 µM for the second.

system: IGROV1 ovarian; assay: growth of human tumour cells (NCI), 48 h

`CN(C)C(=S)/N=c1\ssc(=S)n1Cc1ccccc1` and `CCOC(=O)/C=C/n1c2ccccc2c(=O)c2ccccc21` cannot be ordered by TGI: over 46.4 µM for the first, over 100 µM for the second.

`Cc1ccc(N2C(=O)CS/C2=C(\C#N)c2nc3ccccc3[nH]2)cc1` and `N#C/C(c1nc2ccccc2[nH]1)=c1\s/c(=C/c2ccc(Cl)cc2)c(=O)n1-c1ccccc1` cannot be ordered by TGI: over 100 µM for the first, over 100 µM for the second.

`CCOc1ccc(/C(Cl)=C(\C=O)c2ccc(OC)c(OC)c2)cc1OCC` and `COc1ccc(N=Cc2ccc(N(CCC#N)S(=O)(=O)c3ccccc3)cc2)cc1` cannot be ordered by TGI: over 100 µM for the first, over 100 µM for the second.

`COC(=O)C(C#CCCCCC#CC(NC(=O)OCc1ccccc1)(C(=O)OC)C(F)(F)F)(NC(=O)OCc1ccccc1)C(F)(F)F` (stereo not given) and `C=CCC(N(C)C(=O)[C@H](Cc1ccccc1)NC(=O)OCc1ccccc1)P(=O)(Oc1ccccc1)Oc1ccccc1` (stereo not given in full) cannot be ordered by TGI: over 100 µM for the first, over 100 µM for the second.

`COC(=O)CC1NC(=O)[C@@H]1C(C)O` (stereo not given in full) and `Nc1nc(SCc2ccc([N+](=O)[O-])cc2)nc2c1ncn2C1OC(CO)C(O)C1O` (stereo not given) cannot be ordered by TGI: over 100 µM for the first, over 100 µM for the second.

`O=C1c2ccccc2OP(=O)(OCC(F)(F)F)OC1(C(F)(F)F)C(F)(F)F` (stereo not given) showed a TGI of over 100 µM.

system: KM20L2 colon; assay: growth of human tumour cells (NCI), 48 h

Compared with `CN(C)C(=S)/N=c1\ssc(=S)n1Cc1ccccc1`, `Cc1ccc(N2C(=O)CS/C2=C(\C#N)c2nc3ccccc3[nH]2)cc1` is higher in TGI: 0.388 µM for the first, over 100 µM for the second.

`CCOc1ccc(/C(Cl)=C(\C=O)c2ccc(OC)c(OC)c2)cc1OCC` and `N#C/C(c1nc2ccccc2[nH]1)=c1\s/c(=C/c2ccc(Cl)cc2)c(=O)n1-c1ccccc1` cannot be ordered by TGI: over 100 µM for the first, over 100 µM for the second.

`COC(=O)C(C#CCCCCC#CC(NC(=O)OCc1ccccc1)(C(=O)OC)C(F)(F)F)(NC(=O)OCc1ccccc1)C(F)(F)F` (stereo not given) and `O=C1c2ccccc2OP(=O)(OCC(F)(F)F)OC1(C(F)(F)F)C(F)(F)F` (stereo not given) cannot be ordered by TGI: over 100 µM for the first, over 100 µM for the second.

`COC(=O)CC1NC(=O)[C@@H]1C(C)O` (stereo not given in full) gave a TGI of over 100 µM.

From PubChem BioAssay (NCI)
